In patent publication US4965280A, “Antifungal carbinols” (E. I. Du Pont de Nemours and Company, priority 1989, dated 1990):
Converted amounts (≈) assume the structure as drawn. Counter-ions that a name gives are not always drawn. Like-named read-outs stand apart in the source and are kept apart here.

Key:
[1] = system: Aspergillus fumigatus ATCC 28214; assay: In vitro antifungal MIC, microtiter broth dilution; settings: for MIC: Aspergillus fumigatus, ATCC28214, 24 h; for MIC values, A. fumigatus: 30°, 24 hours
[2] = system: Candida albicans ATCC 11651; assay: In vitro antifungal MIC, microtiter broth dilution; settings: for MIC: Candida albicans, ATCC11651, 24 h; for MIC values, C. albicans: 30°, 24 hours
[3] = system: Candida albicans ATCC 11651; assay: In vivo systemic Candida infection in mice, primary assay; set-up: species or system Candida albicans; CF-1 female mice; settings: for responders at 150 mg/kg / responders at 1 mg/kg/day: Candida albicans, read-out: % Survival
Source text: The […] activity of test compounds is based on the percent (%) survival of infected animals receiving test or standard agent compared to that in an infected untreated group (Table 6). The in vivo assays are chronic systemic infections lethal to mice within 7 days post infection, [J. Barnes, et al. Lab Investigation, 49 460-467 (1963), and T. Rogers and E. Balish, Infection and Immunity, 14 33-38 (1976)].
Candida albicans ATCC 11651, from a frozen stock culture (10^9 organisms/ml) maintained at -70°, is diluted in saline to 1×10^7 organisms/ml and 0.2 ml inoculated intravenously (caudal vein) into 20.0 gm CF-1 female mice (Charles River).
Test compounds are routinely solubilized in 0.25% (w/v) methylcellulose (Methocel®) but for those compounds difficult to solubilize 10% (w/v) Emulophor® (EL620 GAF Corp.) is used. The standard antifungal agents, amphotericin B (Fungizone®) in water and ketoconazole (Nizoral®) in Methocel®, are administered at 1.0 mg/kg/day and 150 mg/kg/day, respectively.
In a primary assay, mice (10 per group) are infected with C. albicans, and receive test compounds at 50 or 150 mg/kg/day via the subcutaneous route. Animals are dosed with the test compound at 1 and 6 hour post-infection and then once daily for the next three days. Survival of mice in each group is recorded for 21 days.
Compounds which protect ≥70% of the infected animals for 14 days at a dose 150 mg/kg/day or less are viewed as active.

Pyricularia oryzae = assay: whole plant or invertebrate; assay type: in vivo; settings: Pyricularia oryzae, 120 h, read-out: disease control rating, Ex. E, 100 PPM
[4] = system: Erysiphe graminis f. sp. tritici; assay: Example D wheat powdery mildew; assay type: in vivo; settings: Blumeria graminis, 144 h; 20 PPM; read-out: disease control rating, Ex. D
Method: (§1) The test compounds were dissolved in acetone in an amount equal to 6% of the final volume and then suspended at a concentration of 100 or 20 ppm in purified water containing 250 ppm of the surfactant TREM 014 (polyhydric alcohol esters). This suspension was sprayed to the point of run-off on wheat seedlings.

Botrytis cinerea = assay: Example C bean grey mold; assay type: in vivo; settings: Botrytis cinerea, 24 h, read-out: disease control rating, Ex. C
Method: as §1, with “broad bean” for “wheat”

Rhizoctonia solani = assay: Example F rice sheath blight; assay type: in vivo; settings: Rhizoctonia solani, 144 h, read-out: disease control rating, Ex. F
Method: as §1, with “rice” for “wheat”

[5] = system: Cercosporidium personatum; assay: Example B Peanut Late Leafspot; assay type: in vivo; settings: Nothopassalora personata, read-out: disease control rating, Ex. B
Method: as §1, with “peanut” for “wheat”

Venturia inaequalis = assay: Example A apple scab; assay type: in vivo; settings: 20 PPM, read-out: disease control rating, Ex. A
Method: as §1, with “apple seedings.” for “wheat seedlings.”

Puccinia recondita = assay: Example G wheat leaf rust; assay type: in vivo; settings: read-out: disease control rating, Ex. G
Plasmorpara viticola = assay: Example I grape downy mildew; assay type: in vivo; settings: read-out: disease control rating, Ex. I
Method: as §1, with “grape” for “wheat”

Phytophthora infestans = assay: whole plant or invertebrate; assay type: in vivo; settings: Phytophthora infestans, in Solanum lycopersicum, read-out: disease control rating, Ex. H, 100 PPM
[6] = read-out: MIC values, A. fumigatus, 30°, 24 hours
[7] = read-out: MIC values, C. albicans, 30°, 24 hours
[8] = ATCC11651, 168 h, 150 mg/kg per day, day 7
[9] = ATCC11651, 336 h, 150 mg/kg per day, day 14
[10] = ATCC11651, 504 h, 150 mg/kg per day, day 21
[11] = read-out: MIC values, A. fumigatus
[12] = read-out: MIC values, C. albicans

C=C(c1ccc(Br)cc1)C(O)(Cn1cncn1)c1ccc(F)cc1 (stereo not drawn) [Example 85]
MIC [1, 6]: 12.5 µg/mL (≈ 32.2 µM)
MIC [2, 7]: ≤ 0.4 µg/mL
responders at 150 mg/kg [3, 8]: 100%
responders at 150 mg/kg [3, 9]: 80%
responders at 150 mg/kg [3, 10]: 70%

C=C(c1ccc(F)cc1)C(O)(c1ccc(F)cc1)C(F)(F)n1cncn1 (stereo not drawn) [Example 1260]
MIC [1, 6]: > 100 µg/mL
MIC [2, 7]: 0.8 µg/mL (≈ 2.2 µM)

CC(=O)N1CCN(c2ccc(OCC3COC(Cn4ccnc4)(c4ccc(Cl)cc4Cl)O3)cc2)CC1 (stereo not drawn) [Ketoconazole, reference compound]
MIC [1, 6]: 11 ± 5 µg/mL (≈ 20.7 µM)
MIC [2, 7]: ≤ 0.1 µg/mL
responders at 150 mg/kg [3, 8]: 100%
responders at 150 mg/kg [3, 9]: 80%
responders at 150 mg/kg [3, 10]: 50%

C=C(c1ccccc1Cl)C(O)(Cn1cncn1)c1ccc(Cl)cc1 (stereo not drawn) [34 HCl salt]
MIC values, A. fumigatus [1]: 1.6 µg/mL
MIC values, C. albicans [2]: 0.03 µg/mL

C=C(c1cccc(C(F)(F)F)c1)C(O)(Cn1cncn1)c1ccc(F)cc1 (stereo not drawn) [Example 725]
responders at 150 mg/kg [3, 8]: 90%
responders at 150 mg/kg [3, 9]: 90%
responders at 150 mg/kg [3, 10]: 40%

C=C(c1ccc(F)cc1)C(O)(c1ccc(F)cc1)C(F)n1cncn1 (stereo not drawn) [Example 1258]
MIC [1, 6]: > 100 µg/mL
MIC [2, 7]: 1.6 µg/mL (≈ 4.63 µM)

C=C(c1ccccc1)C(O)(Cn1cncn1)C(F)(F)C(F)(F)C(F)(F)C(F)(F)F (stereo not drawn) [Example 55]
responders at 150 mg/kg ([3]; ATCC11651, 168 h): 100%
responders at 150 mg/kg ([3]; ATCC11651, 336 h): 70%
responders at 150 mg/kg ([3]; ATCC11651, 504 h): 50%

C[C@@H]1[C@H](O)[C@@H](C)/C=C/C=C/CC/C=C/C=C/C=C/C=C/C(O[C@H]2O[C@H](C)[C@@H](O)[C@H](N)[C@@H]2O)CC2O[C@](O)(CC(O)C(O)CCC(O)CC(O)CC(O)CC(=O)O[C@H]1C)CC(O)C2C(=O)O (stereo partly drawn) [Nystatin, reference compound]
MIC values, A. fumigatus [1]: 3.0 ± 1.0 µg/mL (≈ 3.24 µM)
MIC values, C. albicans [2]: 1.3 ± 0 µg/mL (≈ 1.4 µM)

Nc1nc(=O)[nH]cc1F [5-Fluorocytosine, reference compound]
MIC [1, 6]: 5.7 ± 4 µg/mL (≈ 44.2 µM)
MIC [2, 7]: 0.14 ± 0.1 µg/mL (≈ 1.08 µM)

C=C(c1ccc(F)cc1)C(O)(Cn1cncn1)c1ccncc1 (stereo not drawn) [Example 699]
MIC [1, 6]: 100 µg/mL (≈ 322 µM)
MIC [2, 7]: 50 µg/mL (≈ 161 µM)

C=C(c1ccc(Cl)cc1)C(O)(Cn1cncn1)c1cccc(C(F)(F)F)c1 (stereo not drawn) [Example 685]
pest or weed control at 100 ppm (Pyricularia oryzae): 0%
pest or weed control at 20 ppm [4]: 67%
MIC [1, 6]: 100 µg/mL (≈ 254 µM)
MIC [2, 7]: 0.8 µg/mL (≈ 2.03 µM)
pest or weed control at 20 ppm (Botrytis cinerea; 20 PPM): 28%
pest or weed control at 100 ppm (Botrytis cinerea): 0%
responders at 150 mg/kg [3, 8]: 30%
responders at 150 mg/kg [3, 9]: 10%
responders at 150 mg/kg [3, 10]: 0%
pest or weed control at 20 ppm (Rhizoctonia solani; 20 PPM): 15%
pest or weed control at 100 ppm (Rhizoctonia solani): 29%
pest or weed control at 20 ppm ([5]; 20 PPM): 66%
pest or weed control at 20 ppm (Venturia inaequalis): 57%
pest or weed control at 20 ppm (Puccinia recondita; 20 PPM): 100%

CC=C(c1ccccc1)C(O)(Cn1cncn1)c1ccc(F)cc1 (stereo not drawn) [Example 286]
MIC [1, 6]: 25 µg/mL (≈ 77.3 µM)
MIC [2, 7]: 0.4 µg/mL (≈ 1.24 µM)
responders at 150 mg/kg [3, 8]: 100%
responders at 150 mg/kg [3, 9]: 50%
responders at 150 mg/kg [3, 10]: 20%

C=C(c1ccccc1Cl)C(O)(Cn1cncn1)c1ccc(F)cc1F (stereo not drawn) [35 salt]
% Survival ([3]; 150 mg/kg per day, day 7): 100%
% Survival ([3]; 150 mg/kg per day, day 14): 100%
% Survival ([3]; 150 mg/kg per day, day 21): 70%

C=C(c1ccc(C(C)(C)C)cc1)C(O)(Cn1cncn1)c1ccc(F)cc1 (stereo not drawn) [Example 114]
MIC [1, 6]: 50 µg/mL (≈ 137 µM)
MIC [2, 7]: 0.4 µg/mL (≈ 1.09 µM)
responders at 150 mg/kg [3, 8]: 70%
responders at 150 mg/kg [3, 9]: 10%
responders at 150 mg/kg [3, 10]: 10%

C=C(CO)C(O)(Cn1cncn1)c1ccccc1 (stereo not drawn) [Example 448]
pest or weed control at 100 ppm (Pyricularia oryzae): 0%
pest or weed control at 100 ppm (Plasmorpara viticola): 0%
pest or weed control at 100 ppm (Phytophthora infestans): 0%
pest or weed control at 100 ppm (Botrytis cinerea): 54%
pest or weed control at 100 ppm (Rhizoctonia solani): 42%
pest or weed control at 100 ppm ([5]; 100 PPM): 0%
pest or weed control at 100 ppm (Puccinia recondita; 100 PPM): 16%

C=C(c1ccccc1Cl)C(O)(Cn1cncn1)c1ccc(Cl)cc1 (stereo not drawn) [34 salt]
% Survival ([3]; 150 mg/kg per day, day 7): 100%
% Survival ([3]; 150 mg/kg per day, day 14): 100%
% Survival ([3]; 150 mg/kg per day, day 21): 100%

OC(Cn1cncn1)(c1ccc(F)cc1)C1(c2ccc(F)cc2)CO1 (single isomer, unassigned) [Example 1487, 2,3-bis(4-fluorophenyl)-1-(1H-1,2,4-triazol-1-yl)-3,4-epoxy-2-butanol]
MIC [1, 6]: 6.3 µg/mL (≈ 18.3 µM)
MIC [2, 7]: 0.4 µg/mL (≈ 1.17 µM)
responders at 150 mg/kg [3, 8]: 100%
responders at 150 mg/kg [3, 9]: 100%
responders at 150 mg/kg [3, 10]: 70%

C=C(c1ccc(C(C)(C)C)cc1)C(O)(Cn1cncn1)c1ccc(Cl)cc1 (stereo not drawn) [Example 117]
MIC [1, 6]: 100 µg/mL (≈ 262 µM)
MIC [2, 7]: 0.4 µg/mL (≈ 1.05 µM)
responders at 150 mg/kg [3, 8]: 60%
responders at 150 mg/kg [3, 9]: 0%
responders at 150 mg/kg [3, 10]: 0%

C=C(c1ccc(Cl)cc1)C(O)(Cn1cncn1)c1ccc(Cl)cc1Cl (stereo not drawn) [Example 26 HCl salt]
% Survival ([3]; 150 mg/kg per day, day 7): 100%
% Survival ([3]; 150 mg/kg per day, day 14, listed as 26 salt): 90%
% Survival ([3]; 150 mg/kg per day, day 21, listed as 26 salt): 80%

C=C(c1ccc(Cl)cc1)C(O)(Cn1cncn1)c1ccc(Cl)cc1Cl (stereo not drawn) [26 HCl salt]
MIC values, A. fumigatus [1]: 0.4 µg/mL
MIC values, C. albicans [2]: 0.03 µg/mL

C=C(c1ccc(F)cc1)C(O)(Cn1cncn1)c1ccc(F)cc1 (single isomer, unassigned) [1277 HCl salt]
MIC values, A. fumigatus [1]: 3.2 µg/mL
MIC values, C. albicans [2]: 0.03 µg/mL

C=C(c1ccccc1Cl)C(O)(Cn1cncn1)c1ccc(F)cc1F (stereo not drawn) [35 HCl salt]
MIC values, A. fumigatus [1]: ≤ 0.2 µg/mL
MIC values, C. albicans [2]: 0.03 µg/mL

C[C@@H]1[C@H](O)[C@@H](C)/C=C/C=C/C=C/C=C/C=C/C=C/C=C/[C@H](O[C@@H]2O[C@H](C)[C@@H](O)[C@H](N)[C@@H]2O)C[C@@H]2O[C@](O)(C[C@@H](O)C[C@@H](O)[C@H](O)CC[C@@H](O)C[C@@H](O)CC(=O)O[C@H]1C)C[C@H](O)[C@H]2C(=O)O [Amphotericin B, reference compound]
MIC [1, 11]: 1.4 ± 0.5 µg/mL (≈ 1.52 µM)
MIC [2, 12]: 0.33 ± 0.2 µg/mL (≈ 0.357 µM)
responders at 1 mg/kg/day ([3]; ATCC11651, 168 h): 100%
responders at 1 mg/kg/day ([3]; ATCC11651, 336 h): 100%
responders at 1 mg/kg/day ([3]; ATCC11651, 504 h): 100%

Clc1ccc(COC(Cn2ccnc2)c2ccc(Cl)cc2Cl)c(Cl)c1 (stereo not drawn) [Miconazole, reference compound]
MIC [1, 11]: 1.3 µg/mL (≈ 3.12 µM)
MIC [2, 12]: ≤ 0.1 µg/mL

C=C(c1ccc(F)cc1)C(O)(Cn1cncn1)c1ccc(F)cc1 (stereo not drawn) [1 HCl salt]
MIC values, A. fumigatus [1]: 12.5 µg/mL
MIC values, C. albicans [2]: 0.05 µg/mL
